Results on five compounds are retold here after patent US7625583B2, “Dietary lipids for improving skin and coat of pets” (Nestec S.A., priority 2000, dated 2009).

One test has as its system Staphylococcus aureus. Briefly: Colorimetric AlamarBlue microtiterplate MIC determination of fatty acids. Type of test: cell-based. Conditions: four S. aureus strains, 24 h at 30° C. The source says:
(§1) A colorimetric method for quantitative measurement of the susceptibility of Staphylococcus aureus, Staphylococcus intermedius and Malassezia pachydermatis strains to fatty acids was developed. This method is based on the assays described by Hogan, J. S., et al, 1987, J. Dairy, Sci., 70, 927-934 and Tiballi, R. N., et al., 1995, J. Clin. Microbiol., 33 (4), 915-917.
(§2) The microorganisms used in this study were Staphylococcus aureus FSM 51, 52, 84 (food isolates), ATCC 6538, Staphylococcus intermedius BCCM™/LMG 9079, 13351 and Malassezia pachidermatis ATCC 14522. Staphylococcus strains were grown in Lab-Lemco broth (LL broth, Oxoid CM 15) for 18-20 h at 30° C. and Malassezia was cultivated for 5 days at 30° C. in liquid Dixon medium (30 g Malt extract, 20 g Oxbile, 15 g Agar, 5 g Mycological peptone, 2.5 g Glycerol mono-oleate, 10 ml Tween™ 40, pH=5.4±0.2). After washing in saline (Oxoid, BR53), cell pellets were resuspended in LL broth supplemented with 0.15% agar (w/v).
(§3) Minimal inhibitory concentrations (MICs) of palmitoleic, lauric and oleic acids (NU-CHECK-PREP, Inc, DK, U-40-A, N-12-A, U-46-A respectively) were investigated in a microtiterplate assay using an oxidation-reduction dye, AlamarBlue™ (Interchim, Fr), as an indicator of growth. Each plate was set up with each of the test microorganisms as follows: one column, 110 μl of sterile LL broth supplemented with 0.15% agar (negative control), one column, 100 μl of sterile LL broth supplemented with 0.15% agar plus 10 μl of test microorganism (positive control), other columns, 100 μl of serial two fold dilutions of the test fatty acids (diluted in LL broth supplemented with 0.15% agar) plus 10 μl of microorganism (final concentration of 10^3-10^4 cell/ml). Plates were incubated at 30° C. in ambient air and examined at 24 h and 4-5 days for Staphylococcus strains and Malassezia respectively. After incubation period, 25 μl of AlamarBlue™ solution (¼ diluted with 10 mM Phosphate Buffered Saline 0.05% Tween 20, Sigma P3563) were added to each well. After a second incubation of 2 h (Staphylococcus) and 1 day (Malassezia) at 30° C., endpoints were determined visually by observing a color change from blue (no growth) to pink (growth). MIC was defined as the lowest fatty acid concentration showing no growth (any color change).

The test system of test [1] is Staphylococcus intermedius. The test is described as above. Type of test: cell-based. The note with it: two S. intermedius strains, 24 h at 30° C.
Description: as §1, §2, §3

The test system of the next test is Malassezia pachydermatis. The description is as above. The class given is cell-based. Conditions: one M. pachydermatis strain, 4-5 days at 30° C.
Description: as §1, §2, §3

In test [2] the test system is Pneumococci, Streptococcus, Corynebacteria, Micrococci, Candida, Staphylococcus aureus. Conditions: several skin pathogens; cited from earlier work.
The conditions of test [3]: human trial, 600 mg/day for 24 weeks; cited from earlier work.

Values after ≈ are worked out from the molar mass of the structure shown. Bounds are passed on as bounds.

For `CCCCCCCCCCCC(=O)O` [Lauric, lauric acid], the MIC range is less than 200 to 400 µg/mL in the test on Staphylococcus aureus, less than 200 to 800 µg/mL in test [1] and less than 200 µg/mL in the test on Malassezia pachydermatis. The “Inhibition of skin pathogens in vitro (in words)” value (“Inhibition of skin pathogens” for short) in test [2] is “inhibitory”.
As for `CCCCCCCC/C=C\CCCCCCCC(=O)O` [Oleic, oleic acid], the MIC range (in the test with Staphylococcus aureus; in test [1]; against Malassezia pachydermatis) was more than 25000 µg/mL in each case.
As for `CCCCCC/C=C\CCCCCCCC(=O)O` [Palmitoleic, palmitoleic acid], the MIC range against Staphylococcus aureus was 20 µg/mL (≈ 78.6 µM); in test [1] it was 20 to 100 µg/mL. For the same compound, the “Inhibition of skin pathogens” value in test [2] is given as “inhibitory”.
On to `CCCCC/C=C\C/C=C\CCCCCCCC(=O)O` [linoleic acid], for which the “Inhibition of skin pathogens” value in test [2] is on record as “inhibitory”.
Consider `CCCCC/C=C\C/C=C\C/C=C\CCCCC(=O)O` [γ-linolenic acid], for which the “Improvement of hand dermatitis (in words)” value in test [3] is recorded as “did not improve hand dermatitis significantly”.
